Assay [1] deals with T1, Tec kinase mediated tyrosine phosphorylation of FGF2 (GST-NΔ173 Tec) (Homo sapiens, UniProt P42680).
T1 construct: made in house; host or cells: Tec: SF9 insect cells (baculovirus); FGF2: E. coli
As to the kind of experiment: In vitro Tec kinase mediated tyrosine phosphorylation of FGF2. The format is biochemical. The following applies: 50 μM compound in 1% DMSO; FIG. 6C. The procedure: (§1) FGF2 tyrosine phosphorylation and Tec kinase auto-phosphorylation were reconstituted with purified components based on a Western analysis using anti-phosphotyrosine antibodies directed against an FGF2-derived phosphopeptide. In vitro phosphorylation experiments were conducted in the absence (1% DMSO mock control) and presence of the small molecule inhibitors (#6, #14, #21; 50 μM in 1% DMSO) and control compounds (#18, #19; 50 μM in 1% DMSO) introduced in FIGS. 4 and 5. Fluorescent secondary antibodies were used to detect antigens employing the LI-COR Odyssey imaging platform. M=PageRuler Prestained Protein Ladder. For details, see Experimental Procedures.
(C) Quantification and statistical analysis of 5 independent experiments using the LI-COR Odyssey imaging platform. Following background normalization, the average of FGF2 tyrosine phosphorylation under mock conditions was defined as 100% activity. Standard deviations are shown. […]
FGF2 and STAP1 tyrosine phosphorylation as well as Tec kinase auto-phosphorylation were analyzed as described in the legend to FIG. 6 and in Experimental Procedures. […] Fluorescent secondary antibodies were used to detect and quantify antigens using the LI-COR Odyssey imaging platform. In panels D, E and F, following normalization based upon background signals detected in the absence of Tec kinase or ATP, the average of the signals detected under mock conditions was defined as 100% activity. […]
A Tec kinase in vitro phosphorylation assay was established to test the inhibitory potential and selectivity of the small molecule inhibitors reported in this study (FIGS. 6 and 7). […] Phosphorylation levels of GST-NΔ173 Tec (auto-phosphorylation), FGF2 and STAP1 were quantified by a Western analysis using polyclonal anti-phosphotyrosine antibodies raised against a FGF2-derived synthetic peptide containing a phosphorylated tyrosine residue (ANRpYLAMKED; SEQ ID NO: 1). […] Phosphorylation levels of STAP1 were monitored using a monoclonal anti-phosphotyrosine antibody (clone 4G10®, #05-321, Merck Millipore). […]

The target of assay [2] is T2, GST-NΔ173 Tec (auto-phosphorylation) (Homo sapiens, UniProt P42680).
T2 construct: made in house; host or cells: SF9 insect cells (baculovirus)
T2 sequence (P42680 174-631, stated change not applied): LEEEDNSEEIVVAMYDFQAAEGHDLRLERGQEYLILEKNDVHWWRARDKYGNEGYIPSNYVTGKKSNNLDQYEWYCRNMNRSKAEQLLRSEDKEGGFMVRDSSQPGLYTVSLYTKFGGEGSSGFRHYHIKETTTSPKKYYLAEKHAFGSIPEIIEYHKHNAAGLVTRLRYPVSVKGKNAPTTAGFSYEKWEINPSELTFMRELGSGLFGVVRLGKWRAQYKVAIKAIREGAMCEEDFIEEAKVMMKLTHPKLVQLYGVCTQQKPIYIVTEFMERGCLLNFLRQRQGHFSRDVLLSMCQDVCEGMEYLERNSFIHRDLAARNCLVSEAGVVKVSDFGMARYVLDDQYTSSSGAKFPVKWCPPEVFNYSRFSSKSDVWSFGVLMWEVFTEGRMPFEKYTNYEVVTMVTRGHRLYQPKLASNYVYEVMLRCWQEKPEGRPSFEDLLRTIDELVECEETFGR
As to the kind of experiment: In vitro Tec kinase auto-phosphorylation. The format is biochemical. The following applies: 50 μM compound; for effect on NΔ173 Tec auto-phosphorylation in the presence of STAP1: STAP1 present; for inhibition of Tec auto-phosphorylation in the absence of a substrate: no FGF2, FIGS. 7B and 7E. The procedure: as §1
FGF2 and STAP1 tyrosine phosphorylation as well as Tec kinase auto-phosphorylation were analyzed as described in the legend to FIG. 6 and in Experimental Procedures. In vitro phosphorylation experiments were conducted in the absence (1% DMSO mock control) and presence of the small molecule inhibitors (#6, #14, #21; 50 μM in 1% DMSO) and control compounds (#18, #19; 50 μM in 1% DMSO) introduced in FIGS. 4 and 5. A Western analysis was conducted using anti-phosphotyrosine antibodies (anti-pY-FGF2 for FGF2 and Tec as well as anti-pY-4G10 for STAP1). M=PageRuler Prestained Protein Ladder: 140, 115, 80, 65, 50, 40, 30, 25, 15, 10 kDa. Fluorescent secondary antibodies were used to detect and quantify antigens using the LI-COR Odyssey imaging platform. In panels D, E and F, following normalization based upon background signals detected in the absence of Tec kinase or ATP, the average of the signals detected under mock conditions was defined as 100% activity. Standard deviations are shown. A one-tailed and unpaired T-test was conducted to assess statistical significance (* p<0.05, ** p<0.01, *** p<0.001, **** p<0.0001). “NS” indicates absence of significant differences.
A Tec kinase in vitro phosphorylation assay was established to test the inhibitory potential and selectivity of the small molecule inhibitors reported in this study (FIGS. 6 and 7). Tyrosine phosphorylation of FGF2 and STAP1, another established substrate of Tec kinase, was tested in a final volume of 100 μl (60 mM Hepes pH 7.5, 3 mM MgCl2, 20 μM ATP, 3 μM Sodium orthovanadate, 1.2 mM DTT, 50 ng/μl PEG 20000, 0.05% w/v Tween 20, 0.001% BSA). GST-NΔ173Tec (60 nM) was incubated in the absence (1% DMSO mock control) or presence of each compound (50 μM in 1% DMSO). Where indicated, reactions contained 250 nM of either FGF2 or 250 nM STAP1 (Hölzel Diagnostika, # GWB-P0486E-100). Following incubation at 30° C. for 45 minutes (corresponding to the midpoint of linear product formation), the reaction was terminated using SDS sample buffer and boiling for 4 minutes at 95° C. […] Phosphorylation levels of GST-NΔ173 Tec (auto-phosphorylation), FGF2 and STAP1 were quantified by a Western analysis using polyclonal anti-phosphotyrosine antibodies raised against a FGF2-derived synthetic peptide containing a phosphorylated tyrosine residue (ANRpYLAMKED; SEQ ID NO: 1). […] Phosphorylation levels of STAP1 were monitored using a monoclonal anti-phosphotyrosine antibody (clone 4G10®, #05-321, Merck Millipore). Appropriate fluorescent secondary antibodies (goat anti-rabbit IgG conjugated with Alexa Fluor® 680, # A-21076, Life Technologies; goat anti-mouse IgG conjugated with Alexa Fluor® 680, # A-21057, Life Technologies) were used to quantify all antigens employing the LI-COR Odyssey infrared imaging platform. […]

T1 sequence (P42680 174-631, stated change not applied): as above

Turning to `COC(=O)c1c(C)[nH]c(C(=O)OCc2cc(=O)n3c(C)cccc3n2)c1C` [compound #6], the inhibition at 50 µM in assay [1] is about 75%. Besides, in assay [2], the “effect on NΔ173 Tec auto-phosphorylation in the presence of STAP1” value (shortened to “effect on NΔ173 Tec auto-phosphorylation”) is on record as “neither auto-phosphorylation of NΔ173 Tec nor tyrosine phosphorylation of STAP1 is affected” and the “inhibition of Tec auto-phosphorylation in the absence of a substrate” value is on record as “particularly evident”.

On to `CC(=O)c1c(C)[nH]c(C(=O)OCc2cc(=O)n3cc(Br)ccc3n2)c1C` [compound #14], for which the “inhibition of FGF2 tyrosine phosphorylation” value in assay [1] is listed as “almost quantitative inhibition”. For the same compound, in assay [2], the “effect on NΔ173 Tec auto-phosphorylation” value was “neither auto-phosphorylation of NΔ173 Tec nor tyrosine phosphorylation of STAP1 is affected”.

`CC(=O)c1c(C)[nH]c(C(=O)CSc2nc3cc(Cl)cnc3[nH]2)c1C` [compound #21]: the “inhibition of FGF2 tyrosine phosphorylation” value in assay [1] is reported as “almost quantitative inhibition”. For the same compound, in assay [2], the “effect on NΔ173 Tec auto-phosphorylation” value was “neither auto-phosphorylation of NΔ173 Tec nor tyrosine phosphorylation of STAP1 is affected” and the “inhibition of Tec auto-phosphorylation in the absence of a substrate” value is listed as “particularly evident”.

A word on the inhibition: it is the change of the read-out against control, counted positive when it falls. Higher therefore signals a strong effect.
